Patent publication US5470862A, “Substituted pyrazolyl compounds and methods employing such compounds” (Ohmeda Pharmaceutical Products Division Inc., priority 1995, dated 1995)

Test system: mice
Test: Loss of righting after intravenous administration (mouse)
Type: in vivo
Details: 20 min, intravenous (lateral tail vein), 20 minute observation, acid addition salts, values corrected for the salts
Protocol: (§1) The acid addition salts of the compounds were dissolved in sterile water for injection, U.S.P, to form a solution, the concentration of which varied from 0.001 mg/ml to 5 mg/ml. Mice or rats were used for the tests. The test solution was administered to the test animal intravenously through the lateral tail vein. The animals were observed over a 20 minute period for loss of righting which is defined as the animal remaining in a supine position for 30 seconds. Five to ten mice and three to six rats were utilized for each dosage. The ED50 was calculated for each test compound either by linear regression or by a standard computer program utilizing the method of Litchfield and Wilcoxon, J. Pharmacol. Exp. Ther., vol. 96, p. 99 (1949). Since different animals were used, the ED50 values in Table 1 are those determined in the mouse except those values marked with an asterisk which were determined in the rat.

Going from `C=C(C)c1cc(C(=O)OCC)nn1C(C)c1ccccn1` (stereo not drawn) to `CCOC(=O)c1cc(C(C)=O)n(C(C)c2ccccn2)n1` (stereo not drawn) [CH3 / CO2 Et / CH3 CO / N / CH], the ED50 rises from 8.9 mg/kg to 19.7 mg/kg (2.2-fold).

Going from `CCOC(=O)c1cc(-c2nccs2)nn1C(C)c1ccccn1` (stereo not drawn) to `CCOC(=O)c1cc(-c2cocn2)nn1C(C)c1ccccn1` (stereo not drawn), the ED50 rises from 3.2 mg/kg to 7.7 mg/kg (2.4-fold).

`CCOC(=O)c1cc(-c2cccs2)n(C(C)c2ccccn2)n1` (stereo not drawn) and `CCOC(=O)c1cc(-c2ccsc2)n(C(C)c2ccccn2)n1` (stereo not drawn) are the same in ED50: 17.6 mg/kg for the first, 17.6 mg/kg for the second.

Going from `CCOC(=O)c1cc(-c2ccco2)nn1C(C)c1ccccn1` (stereo not drawn) to `CCOC(=O)c1cc(-c2cnco2)nn1C(C)c1ccccn1` (stereo not drawn), the ED50 rises from 1.3 mg/kg to 2.8 mg/kg (2.2-fold).

Compared with `CCOC(=O)c1cc(-c2ccco2)nn1Cc1ccccn1`, `CCOC(=O)c1cc(-c2ccco2)n(Cc2ccccn2)n1` is 2-fold higher in ED50: 8.9 mg/kg for the first, 17.6 mg/kg for the second.

Compared with `CCOC(=O)c1cc(-c2cccs2)n(Cc2ccccn2)n1`, `CCOC(=O)c1cc(-c2cccs2)nn1Cc1ccccn1` is 2-fold higher in ED50: 14.3 mg/kg for the first, 28.3 mg/kg for the second.

First: CCOC(=O)c1cc(-c2nnco2)nn1C(C)c1ccccn1 (stereo not drawn)
Second: CCOC(=O)c1cc(-c2ocnc2C)nn1C(C)c1ccccn1 (stereo not drawn)
The ED50 of the first is 1.9-fold higher: 9 mg/kg for the first, 4.7 mg/kg for the second.

Going from `CCOC(=O)c1cc(-c2ccccn2)nn1C(C)c1ccccn1` (stereo not drawn) to `CCOC(=O)c1cc(-c2ccccn2)n(C(C)c2ccccn2)n1` (stereo not drawn), the ED50 rises from 3.5 mg/kg to 17.5 mg/kg (5-fold).

Going from `CCOC(=O)c1cc(-c2ccncc2)nn1C(C)c1ccccn1` (stereo not drawn) to `CCOC(=O)c1cc(-c2cccnc2)nn1C(C)c1ccccn1` (stereo not drawn), the ED50 falls from 12 mg/kg to 2.3 mg/kg (5.2-fold).

First: CCOC(=O)c1nc(-c2cc(C(=O)OCC)n(C(C)c3ccccn3)n2)cs1 (stereo not drawn)
Second: CCOC(=O)c1cc(-c2csc(C(=O)OCC)n2)n(C(C)c2ccccn2)n1 (stereo not drawn)
The ED50 of the first is 2.3-fold lower: 13.6 mg/kg for the first, 31.6 mg/kg for the second.

First: CCOC(=O)c1cc(-c2csc(-c3ccncc3)n2)nn1C(C)c1ccccn1 (stereo not drawn)
Second: CCOC(=O)c1cc(-c2csc(-c3ccncc3)n2)n(C(C)c2ccccn2)n1 (stereo not drawn)
The ED50 of the first is 9-fold lower: 5.7 mg/kg for the first, 51.4 mg/kg for the second.

Going from `CCOC(=O)c1cc(-c2cn3ccccc3n2)nn1C(C)c1ccccn1` (stereo not drawn) to `CCOC(=O)c1cc(-c2cccn2C)nn1C(C)c1ccccn1` (stereo not drawn), the ED50 falls from 14.3 mg/kg to 0.95 mg/kg (15-fold).

First: CCOC(=O)c1cc(-c2cocn2)n(C(C)c2ccccn2)n1 (stereo not drawn)
Second: CCOC(=O)c1cc(-c2cc(C)on2)n(C(C)c2ccccn2)n1 (stereo not drawn)
The ED50 of the first is 1.8-fold lower: 13.4 mg/kg for the first, 23.7 mg/kg for the second.

`CCOC(=O)c1cc(-c2cc(C)on2)nn1C(C)c1ccccn1` (stereo not drawn) and `CCOC(=O)c1cc(C)nn1C(C)c1ccccn1` (stereo not drawn) [CH3 / CH3 / CO2 Et / N / CH] are within 1.5-fold of each other in ED50: 9.9 mg/kg for the first, 9 mg/kg for the second.

`CCOC(=O)c1cc(-c2cccn2C)n(C(C)c2ccccn2)n1` (stereo not drawn) and `CCOC(=O)c1cc(C)n(C(C)c2ccccn2)n1` (stereo not drawn) [CH3 / CO2 Et / CH3 / N / CH] are within 1.5-fold of each other in ED50: 6.2 mg/kg for the first, 6.9 mg/kg for the second.

Compared with `CCOC(=O)c1cc(CC)nn1C(C)c1ccccn1` (stereo not drawn) [CH3 / CH2 CH3 / CO2 Et / N / CH], `CCOC(=O)c1cc(C(C)=O)nn1C(C)c1ccccn1` (stereo not drawn) [CH3 / CH3 CO / CO2 Et / N / CH] is 2.4-fold lower in ED50: 9.4 mg/kg for the first, 4 mg/kg for the second.

Compared with `CC(=O)OCc1cc(C)n(C(C)c2ccccn2)n1` (stereo not drawn) [CH3 / CH2 OCOCH3 / CH3 / N / CH], `CCOC(=O)c1cc(COC(C)=O)n(C(C)c2ccccn2)n1` (stereo not drawn) [CH3 / CO2 Et / CH2 OCOCH3 / N / CH] is 2.2-fold lower in ED50: 61.1 mg/kg for the first, 28.3 mg/kg for the second.

`CCOC(=O)c1cc(C)nn1C(C)c1cccnc1` (stereo not drawn) [CH3 / CH3 / CO2 Et / CH / N] and `CCOC(=O)c1cc(C)n(C(C)c2cccnc2)n1` (stereo not drawn) [CH3 / CO2 Et / CH3 / CH / N] are within 1.5-fold of each other in ED50: 21.5 mg/kg for the first, 26.3 mg/kg for the second.

Compared with `CCOC(=O)c1cc(C=O)nn1C(C)c1ccccn1` (stereo not drawn) [CH3 / CHO / CO2 Et / N / CH, 3-formyl-1-(1-(2-pyridinyl)ethyl)pyrazole-5-carboxylic acid ethyl ester], `CCOC(=O)c1cc(C(=O)OCC)n(C(C)c2ccccn2)n1` (stereo not drawn) [CH3 / CO2 Et / CO2 Et / N / CH, 1-[1-(2-pyridyl)ethyl]pyrazole-3,5-dicarboxylic acid diethyl ester] is 7.1-fold lower in ED50: 9.9 mg/kg for the first, 1.4 mg/kg for the second.

Going from `CCOC(=O)c1cc(CC)n(C(C)c2ccccn2)n1` (stereo not drawn) [CH3 / CO2 Et / CH2 CH3 / N / CH] to `CCOC(=O)c1cc(COC)n(C(C)c2ccccn2)n1` (stereo not drawn) [CH3 / CO2 Et / CH2 OCH3 / N / CH], the ED50 rises from 9.4 mg/kg to 19.1 mg/kg (2-fold).

`CCOC(=O)c1cc(C(=O)OCC)n(C(C)c2cccnc2)n1` (stereo not drawn) [CH3 / CO2 Et / CO2 Et / CH / N] and `CCOC(=O)c1cc(C(=O)OCC)n(Cc2cccnc2)n1` [H / CO2 Et / CO2 Et / CH / N] are within 1.5-fold of each other in ED50: 8.6 mg/kg for the first, 10.4 mg/kg for the second.

`CCOC(=O)c1ccn(C(C)c2ccccn2)n1` (stereo not drawn) [CH3 / CO2 Et / H / N / CH] and `CCOC(=O)c1cc(O)n(C(C)c2ccccn2)n1` (stereo not drawn) [CH3 / CO2 Et / OH / N / CH] are within 1.5-fold of each other in ED50: 34.2 mg/kg for the first, 31 mg/kg for the second.

Compared with `CCOC(=O)c1ccnn1C(C)c1ccccn1` (stereo not drawn) [CH3 / H / CO2 Et / N / CH], `CCOC(=O)c1cc(C)nn1Cc1ccccn1` [H / CH3 / CO2 Et / N / CH] is 1.8-fold lower in ED50: 31 mg/kg for the first, 17.4 mg/kg for the second.

First: CCOC(=O)c1cc(C)nn1Cc1cccnc1 [H / CH3 / CO2 Et / CH / N]
Second: CCOC(=O)c1cc(C(=O)OCC)n(Cc2ccccn2)n1 [H / CO2 Et / CO2 Et / N / CH]
The ED50 of the first is 3.6-fold higher: 25.1 mg/kg for the first, 6.9 mg/kg for the second.

`CCOC(=O)c1cc(C)n(Cc2ccccn2)n1` [H / CO2 Et / CH3 / N / CH] and `CCOC(=O)c1ccn(Cc2ccccn2)n1` [H / CO2 Et / H / N / CH] are within 1.5-fold of each other in ED50: 37.7 mg/kg for the first, 43.9 mg/kg for the second.

Test system: rats
Test: Loss of righting after intravenous administration (rat)
Type: in vivo
Details: 20 min; rat (asterisk), intravenous (lateral tail vein), 20 minute observation; acid addition salts, values corrected for the salts
Protocol: as §1

Going from `CCOC(=O)c1cc(-c2nnco2)n(C(C)c2ccccn2)n1` (stereo not drawn) to `CCOC(=O)c1cc(-c2ncco2)n(C(C)c2ccccn2)n1` (stereo not drawn), the ED50 falls from 7.2 mg/kg to 0.85 mg/kg (8.5-fold).

`CCOC(=O)c1cc(-c2csc(-c3cccnc3)n2)nn1C(C)c1ccccn1` (stereo not drawn) and `CCOC(=O)c1cc(-c2cnccn2)nn1C(C)c1ccccn1` (stereo not drawn) are within 1.5-fold of each other in ED50: 1.1 mg/kg for the first, 1.5 mg/kg for the second.

First: CCOC(=O)c1cc(-c2coc(C)n2)nn1C(C)c1ccccn1 (stereo not drawn)
Second: CCOC(=O)c1cc(-c2coc(C)n2)n(C(C)c2ccccn2)n1 (stereo not drawn)
The ED50 of the first is 7.3-fold lower: 1.2 mg/kg for the first, 8.8 mg/kg for the second.

First: CCOC(=O)c1cc(-c2ocnc2C)n(C(C)c2ccccn2)n1 (stereo not drawn)
Second: CCOC(=O)c1cc(-c2ncc(C)o2)n(C(C)c2ccccn2)n1 (stereo not drawn)
The ED50 of the first is 27-fold higher: 23.2 mg/kg for the first, 0.85 mg/kg for the second.

Compared with `CCOC(=O)c1cc(-c2cc(C)no2)nn1C(C)c1ccccn1` (stereo not drawn), `CCOC(=O)c1cc(-c2cc(C)no2)n(C(C)c2ccccn2)n1` (stereo not drawn) is 1.9-fold higher in ED50: 3.8 mg/kg for the first, 7.2 mg/kg for the second.

`CCOC(=O)c1cc(-c2ncc(C)o2)nn1C(C)c1ccccn1` (stereo not drawn) and `CCOC(=O)c1cc(-c2nc(C)no2)nn1C(C)c1ccccn1` (stereo not drawn) are within 1.5-fold of each other in ED50: 1.1 mg/kg for the first, 0.79 mg/kg for the second.

Compared with `CCOC(=O)c1cc(-c2ccn(C)c2)n(C(C)c2ccccn2)n1` (stereo not drawn), `CCOC(=O)c1cc(-c2cccc(N)c2)nn1C(C)c1ccccn1` (stereo not drawn) is 7.9-fold lower in ED50: 4.2 mg/kg for the first, 0.53 mg/kg for the second.

Compared with `CCOC(=O)c1cc(-c2cccnc2)nn1Cc1ccccn1`, `CCOC(=O)c1cc(-c2cccnc2)n(Cc2ccccn2)n1` is 2.5-fold higher in ED50: 7 mg/kg for the first, 17.7 mg/kg for the second.

Compared with `CCOC(=O)c1cc(-c2cccc(C)n2)nn1C(C)c1ccccn1` (stereo not drawn), `CCOC(=O)c1cc(-c2ccccc2N)nn1C(C)c1ccccn1` (stereo not drawn) is 2-fold lower in ED50: 1.6 mg/kg for the first, 0.81 mg/kg for the second.

First: CCOC(=O)c1cc(-c2ccccn2)nn1Cc1ccccn1
Second: CCOC(=O)c1cc(-c2ccccn2)nn1Cc1cccnc1
The ED50 of the first is 6-fold lower: 5.1 mg/kg for the first, 30.5 mg/kg for the second.

`CCOC(=O)c1cc(-c2ccc(N)cc2)nn1C(C)c1ccccn1` (stereo not drawn) and `CCOC(=O)c1cc(-c2ccccc2)nn1C(C)c1ccccn1` (stereo not drawn) are within 1.5-fold of each other in ED50: 2.7 mg/kg for the first, 2.8 mg/kg for the second.

`CCOC(=O)c1cc(-c2cccc(N(C)C)c2)nn1C(C)c1ccccn1` (stereo not drawn) and `CCCNC(=O)c1cc(C(=O)OCC)n(C(C)c2ccccn2)n1` (stereo not drawn) [CH3 / CONHC3 H7 / CO2 Et / N / CH] are within 1.5-fold of each other in ED50: 1.5 mg/kg for the first, 1.8 mg/kg for the second.

`CCOC(=O)C(=O)c1cc(C(=O)OCC)n(C(C)c2ccccn2)n1` (stereo not drawn) [CH3 / COCO2 Et / CO2 Et / N / CH] showed an ED50 of 2.86 mg/kg.
